These results are taken from publication PMC12631437, “Evaluation of the Activity of 4‑Quinolones against Multi-Life Stages of Plasmodium spp” (ACS Omega, 2025).

Values after ≈ are worked out from the molar mass of the structure shown.

Data set [1] deals with TM90C2B. Particulars: strain TM90C2B; cited from earlier work.
For data set [2], the system named is P. falciparum 7G8 strain. In words: SYBR Green growth assay, asexual blood stages, 7G8 strain. To be noted: Plasmodium falciparum; 7G8 strain, 72 h; read-out: IC50. It counts as cell-based, Plasmodium falciparum. The procedure:
(§1) Healthy blood samples for parasite culture were obtained from voluntary donors (approved under protocol #28176720.9.0000.0011), processed to remove white blood cells, and stored at 2 °C–8 °C for up to 15 days. Parasite strains SB1-A6, 7G8, V1/S, and HB3 were acquired from BEI-MR4, while the ATQ R1 strain, carrying a V259L gene mutation, was generated in-house. Infected erythrocytes were cultured in RPMI 1640 medium supplemented with Hepes, sodium bicarbonate, glucose, Albumax, and gentamicin, […], and incubated in a 5% CO2, 5% O2, and 90% N2 gas mixture at 37 °C with daily medium changes. Parasitemia was monitored using Giemsa-stained blood smears.
(§2) Bioassays were conducted with synchronized ring-stage parasites using sorbitol synchronization. Antimalarial compounds were evaluated in 96-well plates, and parasite growth was assessed using a SYBR Green-based fluorescence assay The assays were conducted when the parasite quantity reached at least 70% of the ring stage. Compounds were initially added at specific concentrations in the first wells, followed by serial dilution (1:2) ranging from 20 μM to 0.009 μM. Subsequently, a solution containing parasites in RPMI medium at a hematocrit of 2% was added to each well, and the parasites were then incubated for 72 h.
(§3) To assess parasite growth, the culture medium was replaced with a lysis solution (Trisbase: 49.31%, EDTA: 30.00%, Saponin: 0.16%, Triton: 0.02%) containing the fluorescent dye SYBR Green (Sigma). After a 30 min incubation, fluorescence readings were taken to determine the 50% inhibitory concentration (IC50) of parasite growth. The IC50 values were determined using concentration–response curves generated in GraphPad 8 software. Additionally, the resistance index was calculated by comparing IC50 values obtained for the sensitive 3D7 strain with those of the resistant strains.

Data set [3] relates to HepG2 cells. The experiment in a line: Mitochondrial toxicity, HepG2 cells cultured in glucose or galactose (resazurin). The format is cell-based. To be noted: HepG2 under either condition (glucose or galactose), 3.125–50 μM, 24 h. The procedure: To evaluate mitochondrial toxicity, HepG2 cells were cultured in RPMI-1640 medium under two metabolic conditions: one group was maintained in standard RPMI supplemented with 2 g/L glucose (glucose condition), while the second group was gradually adapted to rely on galactose as the primary energy source. For this adaptation, glucose levels were reduced by 20% every 2 days until reaching a final concentration of 20% of the original glucose amount. On the day of the assay, the […] cells were cultured in glucose-free RPMI medium supplemented with 10 mM galactose. When cells reached 80% confluence, they were detached using 2 mL of trypsin-EDTA solution (0.2 g of EDTA) for 5 min at 37 °C, then resuspended in fresh medium and centrifuged at 100 × g for 1 min. After centrifugation, cells were counted using a Neubauer chamber and seeded at […] per well in 96-well plates containing 180 μL of culture medium. Plates were incubated at 37 °C with 5% CO2 for 12–16 h to allow for cell adhesion. […] After treatment, 40 μL of a 0.15 mg/mL resazurin solution (RSZ) was added to each well and incubated for an additional 5 h. RSZ is a nontoxic, cell-permeable blue dye that is reduced by metabolically active cells to highly fluorescent pink resorufin. Fluorescence was measured using a fluorimeter with excitation/emission at 560/590 nm. Cell viability was calculated relative to untreated controls (set at 100%), determined using GraphPad Prism 8.
(In general: Alamar Blue is a resazurin reagent that responds to reducing activity.)

The subject of data set [4] is Plasmodium falciparum 3D7 sensitive strain. The experiment in a line: SYBR Green growth assay, asexual blood stages, 3D7 sensitive strain. The format is cell-based. Particulars: Plasmodium falciparum, 3D7, 72 h, asexual blood stages, 3D7 sensitive strain, 72 h; read-out: IC50. As to the method: (§4) Parasite strains SB1-A6, 7G8, V1/S, and HB3 were acquired from BEI-MR4, while the ATQ R1 strain, carrying a V259L gene mutation, was generated in-house. […] Parasitemia was monitored using Giemsa-stained blood smears.
as §2
(§5) The IC50 values were determined using concentration–response curves generated in GraphPad 8 software. Additionally, the resistance index was calculated by comparing IC50 values obtained for the sensitive 3D7 strain with those of the resistant strains.

The test system of data set [5] is P. falciparum HB3 strain. The experiment in a line: SYBR Green growth assay, asexual blood stages, HB3 strain. The format is cell-based, Plasmodium falciparum. To be noted: Plasmodium falciparum; HB3 strain, 72 h; read-out: IC50. The procedure:
as §4, §2, §5

For data set [6], the system named is P. vivax ookinetes. In words: Ex vivo P. vivax ookinete formation assay with patient isolates. Particulars: Plasmodium vivax, 24 h, 10 μM, n = 6 patients, read-out: P. vivax ookinete formation inhibition (median). The format is cell-based, Plasmodium vivax. As to the method: Participants were recruited from patients diagnosed with P. vivax malaria via Giemsa-stained blood smears at CEPEM in Porto Velho, Rondônia, Brazil (#28176720.9.0000.0011). Criteria included: P. vivax parasitemia >2000 parasites/μL, age 18–85, no severe malaria, no concomitant diseases, nonpregnant, and consent to study procedures. Approximately 10 mL of venous blood was collected into heparin-coated vials, maintained at 37 °C, and transported to PIVEM for DMFA. Malaria treatment followed Brazilian Ministry of Health guidelines and was unaffected by study participation. […] Erythrocytes were washed with incomplete RPMI-1640 medium by centrifugation at 1500 rpm for 10 min to remove leukocytes. […] The sample was centrifuged once at 450 g for 15 min without a brake. After centrifugation, the pellet remaining at the interface was collected and washed twice at 2000 g for 5 min. […] The parasites were incubated for 24 h at a temperature of 21–24 °C. After this period, the activity of the compounds was determined by microscopy, counting 100 fields to determine the parasitemia per μL in each sample, and counting the mature and immature ookinetes. […] Red blood cells were then washed with incomplete RPMI-1640 medium through centrifugation at 1500 rpm for 10 min to remove leukocytes. […] The sample was centrifuged once at 2000 rpm for 15 min without brake. After centrifugation, the remaining pellet at the interface was collected and washed twice at 2000 rpm for 5 min. […] Parasites were incubated for 24 h at a temperature of 21–24 °C. After this period, compound activity was determined by microscopy counting in 100 fields to determine parasitemia per μL in each sample.

Data set [7] relates to P. falciparum ATQ_R1 strain. In words: SYBR Green growth assay, asexual blood stages, ATQ_R1 strain. Particulars: Plasmodium falciparum, 72 h. It counts as cell-based, Plasmodium falciparum. The procedure:
as §1, §2, §3

In data set [8] the test system is P. falciparum V1/S strain. In words: microbe, parasite or virus in culture. The format is cell-based, Plasmodium falciparum. To be noted: Plasmodium falciparum, 72 h. The procedure: as §1, §2, §3
Data set [9] concerns P. falciparum SB1-A6 strain. The experiment in a line: SYBR Green growth assay, asexual blood stages, SB1-A6 strain. It counts as cell-based, Plasmodium falciparum. To be noted: Plasmodium falciparum, 72 h. The procedure:
as §1, §2, §3

The test system of data set [10] is 164/GFP. To be noted: strain 164/GFP; cited from earlier work.
Data set [11] relates to P. falciparum hepatic stages. Particulars: cited from earlier work.
Data set [12] deals with P. falciparum oocysts in An. freeborni. Also on record: method as in Sáenz et al. To be noted: early stage gametocyte treatments; ref Sáenz et al.; cited from earlier work.
Data set [13] concerns P. falciparum salivary gland infections in mosquitoes. On the set-up: method as in Sáenz et al. Particulars: drug-treated blood at 1 μM, compared to untreated control; ref Sáenz et al.; cited from earlier work.
The test system of data set [14] is P. falciparum oocyst development. Also on record: method as in PMID 12878530, PMID 17361016. Particulars: studies primarily focused on P. falciparum; ref 27;28; cited from earlier work.

As to `CCCCCCCc1c(C)[nH]c2cc(F)cc(F)c2c1=O` [ELQ-121], the IC50 (usually the concentration needed to halve the response being measured) in data set [1] is 1.7 nM.
`O=C1C(O)=C([C@H]2CC[C@H](c3ccc(Cl)cc3)CC2)C(=O)c2ccccc21` [Atovaquone, atovaquone, reference compound]: the IC50 in data set [2] was 6 ± 4 nM; in [4], 1 ± 0.4 nM; in data set [5], 0.7 ± 0.4 nM; in data set [7], greater than 10000 nM; in [8] it was 9 ± 0.8 nM; in data set [9], greater than 10000 nM. Further, the cell survival in [3] is no less than 60%. Besides, in [6], the inhibition – broadly, the percentage by which the read-out fell short of the control – at 10 µM is 97%.
With `CCCCCCCCCCOc1cc2c(O)c(C(=O)OCC)cnc2cc1OCC` [Decoquinate], in [10], the concentration for half-maximal inhibition (IC50) is 10 nM.
Consider `N[C@@H]1[C@H]2CN(c3nc4c(cc3F)c(=O)c(C(=O)O)cn4-c3ccc(F)cc3F)C[C@@H]12` [trovafloxacin], for which, in data set [11], the “IC50 P. falciparum hepatic stages” value was 21.6 ± 2.6 µg/mL (≈ 51.9 µM).
`CCCCc1cc2c(=O)c(C(=O)OCC)c[nH]c2cc1OCCOc1ccccc1` [ICI 56.780]: the “reduction in oocyst numbers” value in data set [12] is on record as 100%. Moreover, in [13], the “reduction of salivary gland infections” value is reported as 80%.
For `OC(c1cc(C(F)(F)F)nc2c(C(F)(F)F)cccc12)C1CCCCN1` (stereo not shown) [mefloquine], in [14], the “concentration required to inhibit oocyst development” value is reported as “around 10 μM”.
Consider `CCCCN(CCCC)CC(O)c1cc(Cl)cc2c1-c1ccc(Cl)cc1/C2=C/c1ccc(Cl)cc1` (stereo not shown) [lumefantrine], for which, in data set [14], the “concentration required to inhibit oocyst development” value is given as “around 10 μM”.
As to `Cc1c(F)c(N2CCNC(C)C2)cc2c1c(=O)c(C(=O)O)cn2C1CC1` (stereo not shown) [Grepafloxacin], the “IC50 P. falciparum hepatic stages” value in data set [11] was 5.0 ± 0.2 µg/mL (≈ 13.9 µM).
